From US7807678B2, “Peptidomimetics of biologically active metallopeptides” (Palatin Technologies, Inc., priority 2001, dated 2010)

Assays:
[1] = target: MC3-R (Homo sapiens, UniProt P41968); experiment: Competitive inhibition binding assay, 125I-NDP-α-MSH, MC3-R; design: expressed in transfected cells; details: for Inhibition at 1 μM MC3-R: 1 μM compound, inhibition of 125I-NDP-α-MSH binding, mean of triplicates, results less than 0% reported as 0%
Description: (§1) The competitive inhibition binding assay was conducted using membranes prepared from hMC3-R, hMC4-R, hMC5-R, and B-16 mouse melanoma cells (containing MC1-R) using 0.4 nM ^125I-NDP-α-MSH (New England Nuclear, Boston, Mass., USA) in 50 mM HEPES buffer containing 1 mM MgCl2, 2 mM CaCl2, and 5 mM KCl, at pH 7.2. The assay tube also contained a chosen concentration of the test peptidomimetic of this invention, generally 1 μM, for determining its efficacy in inhibiting the binding of ^125I-NDP-α-MSH to its receptor.
(§2) Incubation was for 90 minutes at room temperature, after which the assay mixture was filtered and the membranes washed three times with ice cold buffer. The filter was dried and counted in a gamma counter for remaining radioactivity bound to the membranes. 100% specific binding was defined as the difference in radioactivity (cpm) bound to cell membranes in the absence and presence of 1 μM α-MSH. […] Each assay was conducted in triplicate and the actual mean values are described.

[2] = target: MC4-R (Homo sapiens, UniProt P32245); experiment: Competitive inhibition binding assay, 125I-NDP-α-MSH, MC4-R; design: expressed in transfected cells; details: for Inhibition at 1 μM MC4-R: 1 μM compound, inhibition of 125I-NDP-α-MSH binding, mean of triplicates, results less than 0% reported as 0%
MC4-R, sequence (P32245 whole entry): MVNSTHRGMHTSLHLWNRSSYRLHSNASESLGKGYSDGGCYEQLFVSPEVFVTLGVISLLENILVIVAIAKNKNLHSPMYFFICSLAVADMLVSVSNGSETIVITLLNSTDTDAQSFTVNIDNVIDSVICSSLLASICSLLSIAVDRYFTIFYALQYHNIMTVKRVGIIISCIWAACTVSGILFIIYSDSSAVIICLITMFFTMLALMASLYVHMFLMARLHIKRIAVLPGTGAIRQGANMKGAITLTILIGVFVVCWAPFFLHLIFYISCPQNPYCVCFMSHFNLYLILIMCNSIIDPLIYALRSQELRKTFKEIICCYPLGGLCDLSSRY
Description: as §1, §2

[3] = target: MC5-R (Homo sapiens, UniProt P33032); experiment: Competitive inhibition binding assay, 125I-NDP-α-MSH, MC5-R; design: expressed in transfected cells; details: 1 μM compound; inhibition of 125I-NDP-α-MSH binding; mean of triplicates; results less than 0% reported as 0%
MC5-R, sequence (P33032 whole entry): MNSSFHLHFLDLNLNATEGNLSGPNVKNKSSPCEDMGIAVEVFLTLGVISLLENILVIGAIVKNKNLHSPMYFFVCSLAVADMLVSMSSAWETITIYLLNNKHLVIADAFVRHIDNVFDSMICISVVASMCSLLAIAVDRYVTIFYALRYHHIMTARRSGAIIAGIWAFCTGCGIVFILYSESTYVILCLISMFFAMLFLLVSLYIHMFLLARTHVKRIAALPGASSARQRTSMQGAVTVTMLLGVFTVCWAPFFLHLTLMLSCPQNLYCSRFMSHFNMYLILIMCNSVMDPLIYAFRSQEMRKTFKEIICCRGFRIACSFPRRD
Description: as §1, §2

[4] = target: T1, MC1-R (B-16 mouse melanoma cells) (Mus musculus, UniProt Q01727); experiment: Competitive inhibition binding assay, 125I-NDP-α-MSH, MC1-R; details: for Inhibition at 1 μM MC1-R: 1 μM compound, inhibition of 125I-NDP-α-MSH binding, mean of triplicates, results less than 0% reported as 0%
T1 construct: B-16 mouse melanoma cells (containing MC1-R); endogenous in cells; host or cells: B-16 mouse melanoma cells
T1 sequence (Q01727 whole entry): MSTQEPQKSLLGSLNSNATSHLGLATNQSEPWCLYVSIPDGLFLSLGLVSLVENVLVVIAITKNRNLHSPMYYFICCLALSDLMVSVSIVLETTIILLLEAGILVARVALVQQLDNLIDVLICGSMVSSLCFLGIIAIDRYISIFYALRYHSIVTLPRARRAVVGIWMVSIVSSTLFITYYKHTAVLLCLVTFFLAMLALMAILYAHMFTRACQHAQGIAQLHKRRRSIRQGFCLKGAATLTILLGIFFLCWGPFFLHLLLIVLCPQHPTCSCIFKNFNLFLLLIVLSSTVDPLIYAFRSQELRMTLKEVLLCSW
Description: as §1, §2

MC3-R, sequence (P41968 whole entry): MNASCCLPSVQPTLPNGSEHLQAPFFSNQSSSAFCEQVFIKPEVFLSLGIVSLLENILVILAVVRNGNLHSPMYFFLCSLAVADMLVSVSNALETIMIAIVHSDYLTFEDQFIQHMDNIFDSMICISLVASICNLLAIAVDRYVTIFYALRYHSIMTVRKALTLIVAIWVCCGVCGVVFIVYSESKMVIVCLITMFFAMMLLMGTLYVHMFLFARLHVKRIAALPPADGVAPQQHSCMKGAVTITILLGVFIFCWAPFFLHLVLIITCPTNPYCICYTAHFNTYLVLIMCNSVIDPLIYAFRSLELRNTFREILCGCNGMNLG

CCCCCCC(=O)N[C@@H](COCc1ccccc1)C(=O)N[C@H](Cc1ccccc1Cl)C(=O)N1CCN(CCc2c[nH]c3ccccc23)C(=O)[C@@H]1CCCCN [Example 11]
Inhibition at 1 μM MC3-R [1]: 51%
Inhibition at 1 μM MC4-R [2]: 99%
Inhibition at 1 μM MC5-R [3]: 82%
Inhibition at 1 μM MC1-R [4]: 96%

NCCCC[C@H]1C(=O)N(CCc2ccccc2)CCN1C(=O)[C@@H](Cc1ccc(Cl)cc1)NC(=O)[C@@H](N)COCc1ccccc1 [Example 12]
Inhibition at 1 μM MC3-R [1]: 39%
Inhibition at 1 μM MC4-R [2]: 40%
Inhibition at 1 μM MC5-R [3]: 14%
Inhibition at 1 μM MC1-R [4]: 46%

NCCCC[C@H]1C(=O)N(CCc2ccccc2)CCN1C(=O)[C@@H](Cc1ccc(Cl)cc1)NC(=O)[C@@H]1Cc2ccccc2CN1 [Example 13]
Inhibition at 1 μM MC3-R [1]: 21%
Inhibition at 1 μM MC4-R [2]: 66%
Inhibition at 1 μM MC5-R [3]: 16%
Inhibition at 1 μM MC1-R [4]: 68%

N=C(N)NCCC[C@H]1C(=O)N(CCc2c[nH]c3ccccc23)CCN1C(=O)[C@@H](Cc1ccc(Cl)cc1)NC(=O)[C@@H](N)COCc1ccc(Cl)cc1 [Example 15]
Inhibition at 1 μM MC3-R [1]: 64%
Inhibition at 1 μM MC4-R [2]: 94%
Inhibition at 1 μM MC5-R [3]: 90%
Inhibition at 1 μM MC1-R [4]: 81%

N=C(N)NCCC[C@H]1C(=O)N(CCc2c[nH]c3ccccc23)CCN1C(=O)[C@@H](Cc1ccc(Cl)cc1)NC(=O)[C@@H](N)COCc1ccccc1 [Example 16]
Inhibition at 1 μM MC3-R [1]: 55%
Inhibition at 1 μM MC4-R [2]: 96%
Inhibition at 1 μM MC5-R [3]: 81%
Inhibition at 1 μM MC1-R [4]: 86%

N=C(N)NCCC[C@H]1C(=O)N(CCc2c[nH]c3ccccc23)CCN1C(=O)[C@@H](Cc1ccccc1Cl)NC(=O)[C@@H]1Cc2ccccc2CN1 [Example 18]
Inhibition at 1 μM MC3-R [1]: 50%
Inhibition at 1 μM MC4-R [2]: 99%
Inhibition at 1 μM MC5-R [3]: 62%
Inhibition at 1 μM MC1-R [4]: 95%

N=C(N)NCCC[C@H]1C(=O)N(CCc2c[nH]c3ccccc23)CCN1C(=O)[C@@H](Cc1ccccc1Cl)NC(=O)[C@@H]1C[C@@H](OCc2ccccc2)CN1 [Example 19]
Inhibition at 1 μM MC3-R [1]: 59%
Inhibition at 1 μM MC4-R [2]: 99%
Inhibition at 1 μM MC5-R [3]: 85%
Inhibition at 1 μM MC1-R [4]: 91%

N=C(N)NCCC[C@H]1C(=O)N(CCc2c[nH]c3ccccc23)CCN1C(=O)[C@@H](Cc1ccccc1Cl)NC(=O)[C@@H](N)COCc1ccccc1 [Example 20]
Inhibition at 1 μM MC3-R [1]: 40%
Inhibition at 1 μM MC4-R [2]: 98%
Inhibition at 1 μM MC5-R [3]: 71%
Inhibition at 1 μM MC1-R [4]: 87%

N=C(N)NCCCC1C(=O)N(CCc2c[nH]c3ccccc23)CCN1C(=O)C(Cc1ccccc1Cl)NC(=O)C1CCC(c2ccccc2)N1 (stereo not shown) [Example 21]
Inhibition at 1 μM MC3-R [1]: 22%
Inhibition at 1 μM MC4-R [2]: 83%
Inhibition at 1 μM MC5-R [3]: 19%
Inhibition at 1 μM MC1-R [4]: 62%

NCCCC[C@H]1C(=O)N(CCOc2ccc3ccccc3c2)CCN1C(=O)[C@@H](Cc1ccc(Cl)cc1)NC(=O)[C@@H](N)COCc1ccccc1 [Example 29]
Inhibition at 1 μM MC3-R [1]: 21%
Inhibition at 1 μM MC4-R [2]: 64%
Inhibition at 1 μM MC5-R [3]: 72%
Inhibition at 1 μM MC1-R [4]: 64%

NCCCC[C@H]1C(=O)N(CCOc2ccc3ccccc3c2)CCN1C(=O)[C@@H](Cc1ccc(Cl)cc1)NC(=O)[C@@H]1Cc2ccccc2CN1 [Example 30]
Inhibition at 1 μM MC3-R [1]: 35%
Inhibition at 1 μM MC4-R [2]: 88%
Inhibition at 1 μM MC5-R [3]: 65%
Inhibition at 1 μM MC1-R [4]: 88%

NCCCC[C@H]1C(=O)N(CCc2ccc3ccccc3c2)CCN1C(=O)[C@H](N)Cc1ccc(Cl)cc1Cl [Example 35]
Inhibition at 1 μM MC3-R [1]: 3%
Inhibition at 1 μM MC4-R [2]: 62%
Inhibition at 1 μM MC5-R [3]: 4%
Inhibition at 1 μM MC1-R [4]: 9%

CC(=O)NCCCC1C(=O)N(CCc2ccc3ccccc3c2)CCN1C(=O)C(Cc1ccc(Cl)cc1Cl)NC(=O)C(N)COCc1ccccc1 (stereo not shown) [Example 42]
Inhibition at 1 μM MC3-R [1]: 10%
Inhibition at 1 μM MC4-R [2]: 61%
Inhibition at 1 μM MC5-R [3]: 30%
Inhibition at 1 μM MC1-R [4]: 13%

COC(=O)NCCC[C@H]1C(=O)N(CCc2ccc3ccccc3c2)CCN1C(=O)[C@@H](Cc1ccc(Cl)cc1Cl)NC(=O)[C@@H](N)COCc1ccccc1 [Example 43]
Inhibition at 1 μM MC3-R [1]: 0%
Inhibition at 1 μM MC4-R [2]: 43%
Inhibition at 1 μM MC5-R [3]: 20%
Inhibition at 1 μM MC1-R [4]: 1%

CNC(=O)NCCC[C@H]1C(=O)N(CCc2ccc3ccccc3c2)CCN1C(=O)[C@@H](Cc1ccc(Cl)cc1Cl)NC(=O)[C@@H](N)COCc1ccccc1 [Example 45]
Inhibition at 1 μM MC3-R [1]: 11%
Inhibition at 1 μM MC4-R [2]: 72%
Inhibition at 1 μM MC5-R [3]: 31%
Inhibition at 1 μM MC1-R [4]: 5%

N[C@@H](COCc1ccccc1)C(=O)N[C@H](Cc1ccc(Cl)cc1Cl)C(=O)N1CCN(CCc2ccc3ccccc3c2)C(=O)[C@@H]1CCCNS(N)(=O)=O [Example 46]
Inhibition at 1 μM MC3-R [1]: 12%
Inhibition at 1 μM MC4-R [2]: 60%
Inhibition at 1 μM MC5-R [3]: 25%
Inhibition at 1 μM MC1-R [4]: 0%

CS(=O)(=O)NCCC[C@H]1C(=O)N(CCc2ccc3ccccc3c2)CCN1C(=O)[C@@H](Cc1ccc(Cl)cc1Cl)NC(=O)[C@@H](N)COCc1ccccc1 [Example 47]
Inhibition at 1 μM MC3-R [1]: 9%
Inhibition at 1 μM MC4-R [2]: 40%
Inhibition at 1 μM MC5-R [3]: 14%
Inhibition at 1 μM MC1-R [4]: 0%

NCCC[C@H]1C(=O)N(CCc2ccc3ccccc3c2)CCN1C(=O)[C@H](N)Cc1ccc(Cl)cc1Cl [Example 49]
Inhibition at 1 μM MC3-R [1]: 0%
Inhibition at 1 μM MC4-R [2]: 43%
Inhibition at 1 μM MC5-R [3]: 1%
Inhibition at 1 μM MC1-R [4]: 2%

NC(=O)CC[C@H]1C(=O)N(CCc2ccc3ccccc3c2)CCN1C(=O)[C@H](N)Cc1ccc(Cl)cc1Cl [Example 50]
Inhibition at 1 μM MC3-R [1]: 0%
Inhibition at 1 μM MC4-R [2]: 0%
Inhibition at 1 μM MC5-R [3]: 0%
Inhibition at 1 μM MC1-R [4]: 0%

NCC[C@H]1C(=O)N(CCc2ccc3ccccc3c2)CCN1C(=O)[C@H](N)Cc1ccc(Cl)cc1Cl [Example 54]
Inhibition at 1 μM MC3-R [1]: 11%
Inhibition at 1 μM MC4-R [2]: 55%
Inhibition at 1 μM MC5-R [3]: 23%
Inhibition at 1 μM MC1-R [4]: 28%

N[C@H](Cc1ccc(Cl)cc1Cl)C(=O)N1CCN(CCc2ccc3ccccc3c2)C(=O)[C@@H]1CCNC1=NCCN1 [Example 55]
Inhibition at 1 μM MC3-R [1]: 14%
Inhibition at 1 μM MC4-R [2]: 68%
Inhibition at 1 μM MC5-R [3]: 27%
Inhibition at 1 μM MC1-R [4]: 24%

N=C(N)NCC[C@H]1C(=O)N(CCc2ccc3ccccc3c2)CCN1C(=O)[C@H](N)Cc1ccc(Cl)cc1Cl [Example 56]
Inhibition at 1 μM MC3-R [1]: 13%
Inhibition at 1 μM MC4-R [2]: 81%
Inhibition at 1 μM MC5-R [3]: 24%
Inhibition at 1 μM MC1-R [4]: 21%

NC(=O)NCC[C@H]1C(=O)N(CCc2ccc3ccccc3c2)CCN1C(=O)[C@H](N)Cc1ccc(Cl)cc1Cl [Example 57]
Inhibition at 1 μM MC3-R [1]: 0%
Inhibition at 1 μM MC4-R [2]: 9%
Inhibition at 1 μM MC5-R [3]: 5%
Inhibition at 1 μM MC1-R [4]: 11%

N[C@H](Cc1ccc(Cl)cc1Cl)C(=O)N1CCN(CCc2ccc3ccccc3c2)C(=O)[C@@H]1CCCn1cncn1 [Example 58]
Inhibition at 1 μM MC3-R [1]: 0%
Inhibition at 1 μM MC4-R [2]: 0%
Inhibition at 1 μM MC5-R [3]: 3%
Inhibition at 1 μM MC1-R [4]: 7%

NCCCC[C@H]1C(=O)N(CCc2ccc3ccccc3c2)CCN1C(=O)[C@H](N)Cc1ccc2ccccc2c1 [Example 59]
Inhibition at 1 μM MC3-R [1]: 14%
Inhibition at 1 μM MC4-R [2]: 72%
Inhibition at 1 μM MC5-R [3]: 30%
Inhibition at 1 μM MC1-R [4]: 26%

N[C@H](Cc1ccc(Cl)cc1Cl)C(=O)N1CCN(CCc2ccc3ccccc3c2)C(=O)[C@@H]1CCCCNC(=O)c1cccnc1 [Example 60]
Inhibition at 1 μM MC3-R [1]: 6%
Inhibition at 1 μM MC4-R [2]: 23%
Inhibition at 1 μM MC5-R [3]: 13%
Inhibition at 1 μM MC1-R [4]: 4%

N[C@H](Cc1ccc(Cl)cc1Cl)C(=O)N1CCN(CCc2ccc3ccccc3c2)C(=O)[C@@H]1CCCCNC(=O)c1ccc(O)cc1 [Example 61]
Inhibition at 1 μM MC3-R [1]: 6%
Inhibition at 1 μM MC4-R [2]: 12%
Inhibition at 1 μM MC5-R [3]: 26%
Inhibition at 1 μM MC1-R [4]: 3%

N[C@H](Cc1ccc(Cl)cc1Cl)C(=O)N1CCN(CCc2ccc3ccccc3c2)C(=O)[C@@H]1CCCCNC(=O)CC1CCCCC1 [Example 62]
Inhibition at 1 μM MC3-R [1]: 4%
Inhibition at 1 μM MC4-R [2]: 6%
Inhibition at 1 μM MC5-R [3]: 2%
Inhibition at 1 μM MC1-R [4]: 0%

N[C@H](Cc1ccc(Cl)cc1Cl)C(=O)N1CCN(CCc2ccc3ccccc3c2)C(=O)[C@@H]1CCCCNC=O [Example 64]
Inhibition at 1 μM MC3-R [1]: 0%
Inhibition at 1 μM MC4-R [2]: 30%
Inhibition at 1 μM MC5-R [3]: 6%
Inhibition at 1 μM MC1-R [4]: 8%

CC(=O)NCCCC[C@H]1C(=O)N(CCc2ccc3ccccc3c2)CCN1C(=O)[C@H](N)Cc1ccc(Cl)cc1Cl [Example 65]
Inhibition at 1 μM MC3-R [1]: 3%
Inhibition at 1 μM MC4-R [2]: 26%
Inhibition at 1 μM MC5-R [3]: 0%
Inhibition at 1 μM MC1-R [4]: 17%

NC(=O)NCCCC[C@H]1C(=O)N(CCc2ccc3ccccc3c2)CCN1C(=O)[C@H](N)Cc1ccc(Cl)cc1Cl [Example 66]
Inhibition at 1 μM MC3-R [1]: 15%
Inhibition at 1 μM MC4-R [2]: 49%
Inhibition at 1 μM MC5-R [3]: 14%
Inhibition at 1 μM MC1-R [4]: 43%

[2H]N[C@@H](Cc1cnc[nH]1)C(=O)N[C@@H](Cc1ccccc1)C(=O)N1C2CC[C@H](COc3ccc4ccccc4c3)N2C(=O)[C@@H]1CCCCN (stereo partly shown) [Example 111]
inhibition at 1 µM [1]: 9%
inhibition at 1 µM [2]: 10%
inhibition at 1 µM [4]: 94%
